Assay results as given in patent US4283381A, “Triiodinated aminoacetamido isophthalamide x-ray contrast agents” (Schering Aktiengesellschaft, priority 1979, dated 1981).

Experiments:
Iodine content of salt = assay type: physicochemical
[1] = Viscosity of solution with 300 mg iodine/ml, 37° C.; assay type: physicochemical
[2] = Molarity (and thus osmotic pressure) of solution with 300 mg iodine; assay type: physicochemical; details: 300 mg iodine/ml
Rat (100 g) = experiment: LD50 rat, intravenous injection; assay type: in vivo; details: solution 300 mg iodine/ml, injection rate 2 ml/min
Experimental: (§1) LD50 on mice and rats was determined after intravenous injection of
(§2) the solutions containing 300 mg iodine/ml with an injection rate of 2

Mouse (20 g) = experiment: LD50 mouse, intravenous injection; assay type: in vivo; details: solution 300 mg iodine/ml, injection rate 2 ml/min
Experimental: as §1, §2

Row | SMILES | Iodine content of salt (Iodine content of salt) [%] | Viscosity of solution with 300 mg iodine/ml, 37° C. in centipoises [1] [centipoises] | Molarity of solution with 300 mg iodine [2] [mol/L] | LD50 Rat (100 g) g iodine/kg (Rat (100 g)) [g iodine/kg] | LD50 Mouse (20 g) g iodine/kg (Mouse (20 g)) [g iodine/kg]
1 | CC(=O)Nc1c(I)c(NC(C)=O)c(I)c(C(=O)O)c1I [Megl. Amidotrizoate] | 47 | 5.0 | 0.787 | 7.5 | –
2 | CN(CC(O)CO)C(=O)c1c(I)c(NC(=O)CN)c(I)c(C(=O)N(C)CC(O)CO)c1I (centres unmarked) [B-Amidotrizoate, 5-amidoacetamido-2,4,6-isophthalic acid bis(N-methyl-2,3-dihydroxypropyl) diamide amidotrizoate] | 54 | 3.5 | 0.394 | ≥ 10 | –
3 | CNC(=O)c1c(I)c(NC(C)=O)c(I)c(C(=O)O)c1I [Megl. Iothalamate] | 47 | 5.2 | 0.787 | 7.4 | 4.5
4 | NCC(=O)Nc1c(I)c(C(=O)NCCO)c(I)c(C(=O)NCCO)c1I [A-Iothalamate, 5-aminoacetamido-2,4,6-triiodoisophthalic acid bis(2-hydroxyethyl)amide iothalamate] | 58 | 2.4 | 0.394 | ≥ 10 | ≥ 10.5
5 | CNC(=O)c1c(I)c(NC(C)=O)c(I)c(C(=O)O)c1I [Na-Iothalamate] | 60 | 2.7 | 0.787 | 7.0 | 8.0
